Tested on: monitor protein expressed on the cell membrane
Experiment: Recovery of cell-membrane luminescence after Sulfo-NHS deactivation (intracellular transport of monitor protein)
Assay type: cell-based, Chinese hamster
Details: CHO-K1 cells expressing pCMV-DL-D3-CD8, 1 mM BFA, up to 6 hours after deactivation, FIG. 6
Procedure: The vector pCMV-DL-D3-CD8 prepared in Example 1 was introduced into an animal cell. Briefly, CHO-K1 cells were seeded on 6-well plates at 1=10^6 cells/well and cultured in D-MEM/Ham's F-12 medium (Wako Purechamical Industries) containing 10% FCS. After overnight culture at 37° C., 4 μg of pCMV-DL-D3-CD8 was added to each well and mixed with 250 μl of Opti-MEM serum-free medium (Gibco RRL) and reacted at room temperature for 5 min. Then, 10 μl of lipofectamine 2000 reacted in 250 μl of Opti-MEM serum-free medium at room temperature for 5 min was mixed with the cells to perform transfection in Opti-MEM serum-free medium. Then, the medium was exchanged for D-MEM/Ham's F-12 medium containing 10% FCS. […] Then, cells were counted, followed by preparation of a cell suspension with a cell density of 2×10^7 cells/ml.
By adding 0.5 mM Sulfo-NHS (Pierce) to the cell suspension, the monitor protein expressed on the cell membrane was inactivated. […] Cells were counted and arranged to give a density of 4×10^5 cells per 100 μl. […] To one aliquot, 2 μl of dinoflagellate-derived luciferin was added and the luminescence activity of the monitor protein expressed on the cell membrane was measured. Other aliquots were subjected to measurement of the amount of ATP-derived luminescence in order to examine whether the cell count is constant in individual samples taken at the above-indicated time points.

C[C@H]1CCC/C=C/[C@@H]2C[C@H](O)C[C@H]2[C@H](O)/C=C/C(=O)O1 [BFA, Brefeldin A]
luminescence derived from the membrane protein expressed on the cell membrane after deactivation treatment: luminescence was not recognized

— patent US20080182274A1, “MONITOR PROTEINS USABLE FOR ANALYZING EXPRESSION OF MEMBRANE PROTEINS” (National Institute of Advanced Industrial Science and …, priority 2007, published 2008)
